{"source": "patent US9393288B2", "about": "“Methods of treating diseases associated with PPARγ” (The University of Vermont and State Agricultural College, priority 2012, dated 2016)", "key": {"[1]": {"assay": "Conscious blood pressure, non-invasive tail-cuff method, SHR", "assay_type": "in vivo, rat", "details": "SHR-F, relaxin 4 μg/hr 14 days", "experimental": "Systemic blood pressures were determined in all groups of animals using a non-invasive tail-cuff method (Chan, S. L., and Cipolla, M. J. (2011) Relaxin causes selective outward remodeling of brain parenchymal arterioles via activation of peroxisome proliferator-activated receptor-gamma. FASEB J 25, 3229-3239). For untreated WKY-F and SHR-F groups, blood pressures were measured on the day the animals were euthanized. For relaxin treated groups, blood pressures were measured on day 0 (baseline, before pump implant), 2, 7 and 14. All animals were trained for 3 days before actual blood pressure measurements were taken."}, "[2]": {"system": "PPARγ target genes", "assay": "PPARγ target gene expression (real-time qPCR) in adipose tissue, pial arteries and PA, NP Sprague Dawley rats", "assay_type": "in vivo, rat", "text": "Animals and Treatment Groups: All procedures were approved by the Institutional Animal Care and Use Committee and conducted in accordance with the National Institutes of Health Guide for the Care and Use of Laboratory Animals. Female virgin NP Sprague Dawley rats (250-300 g, 14-16 weeks, Charles River, Canada) were used for all experiments and housed in the University of Vermont Animal Care Facility. Animals were randomly selected and grouped as untreated (N=4), treated with recombinant human relaxin-2 (relaxin, 4 μg/hr; N=14), relaxin plus a specific PPARγ inhibitor GW9662 (10 mg/kg daily in food; N=8), or vehicle (20 mM sodium acetate; N=14) for 10 days through osmotic minipumps (Alzet 2ML2, Durect Corp., Cupertino, Calif., USA). GW9662 treatment was started 1 day before and for the duration of relaxin treatment to ensure PPARγ was inhibited. Animals were anesthetized with 3% isoflurane and minipumps implanted subcutaneously in the back of the neck. All animals received post-surgical analgesic (buprenorphine, 50 μg/kg, s.c.). Relaxin infusion was continuous for 10 days until animals were euthanized for vessel experiments and tissue collection. The minipumps used were capable of delivering relaxin for 14 days and thus tissue collection was within this duration.\nDetermination of RXFP1 and PPARγ Target Gene Expression: MCA and PA from 4 untreated rats were collected to determine expression level of RXFP1, the primary relaxin receptor, using real-time qPCR methods. We also collected adipose tissue, pial arteries, and PA from vehicle, relaxin and relaxin+GW9662 groups (n=6 for each group) for determination of PPARγ target gene expression. All collected samples were stored in RNase inhibitor (1 unit/μl, RiboLock, Fermentas, Glen Burnie, Md., USA) at −80° C. for comparing expression of fatty acid translocase (FAT)/CD36 and liver X receptors-α (LXRα) for adipose tissue, and plasminogen activator inhibitor-1 (PAI-1) for vasculature. Standard techniques for real-time qPCR were performed by the Vermont Cancer Center DNA analysis facility at the University of Vermont, as described previously Cipolla et al. (2009) Stroke 40, 1451-1457. Briefly, RNA was extracted from tissues and concentration and integrity was determined by a NanoDrop ND-1000 Spectrophotometer (Wilmington, Del.) and an Agilent 2100 Bioanalyzer (Santa Clara, Calif., USA), respectively. Samples with low RNA quality were excluded. cDNA was then made by a SuperScript III Kit (Invitrogen, Carlsbad, Calif., USA). Real-time qPCR was set up as follows: 10 μL Universal PCR Master Mix (Applied Biosystems, Foster City, Calif., USA), 1 μL Assay on Demand (Applied Biosystems), 8 μL water, and 1 μL cDNA. β2-microglobulin (B2M, housekeeping control) and target genes were assessed using Assays on Demand from Applied Biosystems. […] Primers were designed across an exon-exon junction to avoid detecting genomic DNA. Thus, no DNase treatment of samples was necessary. All samples were run in duplicates using a 7900HT Sequence Detection System (Applied Biosystems). […]\nData Calculations and Statistical Analysis: Percent tone was calculated as percent decrease in ID from the passive diameter at each intravascular pressure: [1−(IDactive/IDpassive)]×100%. Outer diameter (OD) was calculated from measured ID and WT: ID+2WT. Cross-sectional area (CSA) of the wall was calculated as: [(OD/2)2−(ID/2)2]×π. Data from qPCR study were analyzed using the −2^ΔΔCT method, as described previously Livak et al. (2001) Methods 25, 402-408. […]"}}}
{"substance": "relaxin", "values": [{"measurement": "Blood pressure", "setting": "[1]", "result": "did not cause a lowering of blood pressure"}, {"measurement": "Blood pressure", "setting": "[1]; listed as Relaxin", "result": "did not affect"}, {"measurement": "Gene expression of CD36 in adipose tissue", "setting": "[2]; relaxin vs vehicle, NP rats", "result": "decreased"}, {"measurement": "PAI-1 expression in pial arteries", "setting": "[2]; relaxin vs vehicle, NP rats", "result": "did not significantly change"}, {"measurement": "PAI-1 expression in PA", "setting": "[2]; relaxin vs vehicle, NP rats, low sample numbers", "result": "did not significantly change"}, {"measurement": "Gene expression of LXR-α in adipose tissue", "setting": "[2]; similar trend as CD36 (decrease with relaxin, normalized by GW9662)", "result": "not statistically significant"}]}
